Measurements published in article PMC9179341, “Design of New Potent and Selective Thiophene-Based KV1.3 Inhibitors and Their Potential for Anticancer Activity” (Cancers, 2022).
Entries after “also recorded” stand apart in the source; their conditions may differ.

target: KV1.2 (Homo sapiens, UniProt P16389); experiment: Selectivity, HiClamp Xenopus laevis heterologous expression system, KV1.2; assay type: cell-based; conditions: HiClamp, oocytes; NA = no significant inhibition, no IC50 determined
Description: (§1) Ion channels (Kv1.x, Kv2.1, Kv4.2, Kv10.1) were expressed in Xenopus laevis oocytes by linearization of the plasmids and subsequent in vitro transcription using a commercial T7 or SP6 mMESSAGE mMACHINE transcription kit (Ambion, Carlsbad, California, USA). Defolliculated Xenopus oocytes were then injected with 20–50 nL of the cRNA at a concentration of 1 ng/nL using a micro-injector (Drummond Scientific1, Broomall, PA, USA). The oocytes were incubated in a solution containing (in mM): NaCl, 96; KCl, 2; CaCl2, 1.8; MgCl2, 2 and HEPES, 5 (pH 7.5), supplemented with 50 mg/L gentamycin sulfate and 90 mg/L theophylline. After ex vivo translation, the ion channels were correctly inserted in the cell membrane of the oocytes.
(§2) Two-electrode voltage-clamp recordings were performed at room temperature (18–22 °C) using a Geneclamp 500 amplifier (Molecular Devices, San Jose, CA, USA) and pClamp data acquisition (Axon Instruments, Union City, CA, USA) and using an integrated digital TEVC amplifier controlled by HiClamp, an automated Voltage-Clamp Screening System (Multi Channel Systems MCS GmbH, Reutlingen, Germany). Whole-cell currents from oocytes were recorded 1–4 days after injection. The bath solution composition was ND96 (in mM): NaCl, 96; KCl, 2; CaCl2, 1.8; MgCl2, 2 and HEPES, 5 (pH 7.5). Voltage and current electrodes were filled with a 3 M solution of KCl in H2O. Resistances of both electrodes were kept between 0.5 and 1.5 MΩ. The elicited Kv1.x, Kv2.1, Kv4.2 and Kv10.1 currents were filtered at 0.5 kHz and sampled at 2 kHz using a four-pole low-pass Bessel filter. Leak subtraction was performed using a P/4 protocol.
(§3) For the electrophysiological analysis of the compounds, a number of protocols were applied from a holding potential of −90 mV. Currents for Kv1.x, Kv2.1, Kv4.2 and Kv10.1 were evoked by 1 s depolarizing pulses either to 0 mV or to a range of voltage steps between −80 mV and +40 mV. For the analysis of the data, only the inhibition at the 0 mV step was used. The concentration dependency of all compounds was assessed by measuring the current inhibition in the presence of increasing compound concentrations. […] From this stock solution, adequate dilutions with a maximum of 0.5% DMSO were made for testing.
(§4) All electrophysiological data (Figure S1) are presented as means ± S.E.M of n ≥ three independent experiments unless otherwise indicated. All data were analyzed using pClamp Clampfit 10.4 (Molecular Devices, Downingtown, PA, USA), OriginPro 9 (Originlab, Northampton, MA, USA), GraphPad Prism 8 software (GraphPad Software, Inc., San Diego, CA, USA) and DataMining (Multi Channel Systems MCS GmbH, Reutlingen, Germany). The Dunnett test and one-way ANOVA were performed to calculate the significance of the induced inhibition compared to the control.

Chain of KV1.2 (P16389 whole entry): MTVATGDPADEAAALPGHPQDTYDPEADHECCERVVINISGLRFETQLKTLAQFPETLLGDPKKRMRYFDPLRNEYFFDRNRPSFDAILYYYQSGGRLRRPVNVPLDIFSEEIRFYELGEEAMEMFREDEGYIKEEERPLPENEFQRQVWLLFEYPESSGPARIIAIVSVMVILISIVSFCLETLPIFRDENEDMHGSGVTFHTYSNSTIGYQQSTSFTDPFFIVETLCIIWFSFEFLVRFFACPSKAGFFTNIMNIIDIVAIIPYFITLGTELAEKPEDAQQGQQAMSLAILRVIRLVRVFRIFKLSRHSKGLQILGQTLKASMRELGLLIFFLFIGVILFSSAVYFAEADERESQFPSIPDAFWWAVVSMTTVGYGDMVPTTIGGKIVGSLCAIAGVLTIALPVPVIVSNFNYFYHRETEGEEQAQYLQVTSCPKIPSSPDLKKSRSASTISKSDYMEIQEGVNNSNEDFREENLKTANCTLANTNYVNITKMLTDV

Compound | IC50 [nM]
COc1ccccc1C(=O)NCC1(c2cccs2)CCOC1 (centres unmarked) [Compound 14] | 4000 ± 200
COc1ccccc1C(=O)NCC1(c2cccs2)CCOCC1 [Compound 43] | 2760 ± 560
COc1ccc(F)cc1C(=O)NCC1(c2ccccc2)CCOCC1 [Compound 37] | 2340 ± 260

same assay, conditions: at a concentration of the compound's IC50 value for KV1.3

Compound | Effect on KV1.2 channel
COc1ccccc1C(=O)NCC1(c2ccsc2)CCOCC1 [Compound 44] | no significant effects
COc1ccccc1C(=O)NCC1(c2cccs2)CCOC1 (centres unmarked) [Compound 14] | significant effects
COc1ccccc1C(=O)NCC1(c2cccs2)CCOCC1 [Compound 43] | significant effects
COc1ccc(F)cc1C(=O)NCC1(c2ccccc2)CCOCC1 [Compound 37] | significantly inhibited

target: KV1.6 (Homo sapiens, UniProt P17658); experiment: Selectivity, HiClamp Xenopus laevis heterologous expression system, KV1.6; assay type: cell-based; conditions: HiClamp, oocytes; NA = no significant inhibition, no IC50 determined
Description: as §1, §2, §3, §4

Chain of KV1.6 (P17658 whole entry): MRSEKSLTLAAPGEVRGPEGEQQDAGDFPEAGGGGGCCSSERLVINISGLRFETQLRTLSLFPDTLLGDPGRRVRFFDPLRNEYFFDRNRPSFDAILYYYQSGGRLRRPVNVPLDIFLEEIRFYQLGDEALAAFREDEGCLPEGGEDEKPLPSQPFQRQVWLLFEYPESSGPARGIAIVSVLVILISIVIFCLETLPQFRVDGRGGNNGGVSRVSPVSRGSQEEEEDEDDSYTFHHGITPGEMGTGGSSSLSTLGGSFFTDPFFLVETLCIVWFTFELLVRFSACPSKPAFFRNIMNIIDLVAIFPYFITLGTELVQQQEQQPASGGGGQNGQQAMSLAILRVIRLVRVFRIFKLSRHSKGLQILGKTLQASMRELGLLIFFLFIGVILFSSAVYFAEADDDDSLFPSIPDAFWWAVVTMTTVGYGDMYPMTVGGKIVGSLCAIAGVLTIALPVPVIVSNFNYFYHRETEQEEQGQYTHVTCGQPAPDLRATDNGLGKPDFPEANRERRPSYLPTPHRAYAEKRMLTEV

Compound | IC50 [nM]
COc1ccccc1C(=O)NCC1(c2cccs2)CCOC1 (centres unmarked) [Compound 14] | 430 ± 20
COc1ccccc1C(=O)NCC1(c2cccs2)CCOCC1 [Compound 43] | 830 ± 10
COc1ccc(F)cc1C(=O)NCC1(c2ccccc2)CCOCC1 [Compound 37] | 4330 ± 1210

same assay, conditions: at a concentration of the compound's IC50 value for KV1.3

Compound | Effect on KV1.6 channel
COc1ccccc1C(=O)NCC1(c2ccsc2)CCOCC1 [Compound 44] | no significant effects
COc1ccccc1C(=O)NCC1(c2cccs2)CCOC1 (centres unmarked) [Compound 14] | significant effects
COc1ccccc1C(=O)NCC1(c2cccs2)CCOCC1 [Compound 43] | significant effects
COc1ccc(F)cc1C(=O)NCC1(c2ccccc2)CCOCC1 [Compound 37] | significantly inhibited

system: not listed separately; experiment: Turbidimetric solubility assay; assay type: physicochemical; conditions: 10 µM in PBS with 1 % final DMSO
Description: For the phosphate-buffered saline, we dissolved 2.38 g of disodium hydrogen phosphate dodecahydrate, 0.19 g of potassium dihydrogen phosphate, and 8.0 g of sodium chloride in water and diluted it to 1000 mL with the same solvent. Then we adjusted the pH to 7.4. The stock DMSO solutions of the compounds were prepared at concentrations of 50 mM, 20 mM, 10 mM, and 1 mM. The final solutions (500 µM, 200 µM, 100 µM, and 10 µM) were prepared by adding 2 µL of the stock DMSO solution to 198 µL of phosphate-buffered saline. The absorbance (area scan) was measured at 620 nm for sample volume of 200 µL and the appearance of the solutions was checked by visual inspection.

Compound | absorbance at 620 nm
COc1ccccc1C(=O)NCC1(c2ccsc2)CCOCC1 [Compound 44] | 0
COc1ccccc1C(=O)NCC1(c2cccs2)CCOCC1 [Compound 43] | 0,01
COc1ccc(F)cc1C(=O)NCC1(c2ccccc2)CCOCC1 [Compound 37] | 0

same assay, conditions: 100 µM in PBS with 1 % final DMSO

Compound | absorbance at 620 nm
COc1ccccc1C(=O)NCC1(c2ccsc2)CCOCC1 [Compound 44] | 0,003
COc1ccccc1C(=O)NCC1(c2cccs2)CCOCC1 [Compound 43] | 0,002
COc1ccc(F)cc1C(=O)NCC1(c2ccccc2)CCOCC1 [Compound 37] | 0,003

same assay, conditions: 200 µM in PBS with 1 % final DMSO

Compound | absorbance at 620 nm
COc1ccccc1C(=O)NCC1(c2ccsc2)CCOCC1 [Compound 44] | 0,003
COc1ccccc1C(=O)NCC1(c2cccs2)CCOCC1 [Compound 43] | 0,003
COc1ccc(F)cc1C(=O)NCC1(c2ccccc2)CCOCC1 [Compound 37] | 0,005

same assay, conditions: 500 µM in PBS with 1 % final DMSO

Compound | absorbance at 620 nm
COc1ccccc1C(=O)NCC1(c2ccsc2)CCOCC1 [Compound 44] | 0,014
COc1ccccc1C(=O)NCC1(c2cccs2)CCOCC1 [Compound 43] | 0,011
COc1ccc(F)cc1C(=O)NCC1(c2ccccc2)CCOCC1 [Compound 37] | 0,077

same assay, conditions: pH 7.4, aqueous buffer, kinetic from dmso stock; phosphate-buffered saline, final 1% DMSO; read-out: Concentration at which compound was soluble (turbidimetric solubility test)

Compound | solubility [µM]
COc1ccccc1C(=O)NCC1(c2ccsc2)CCOCC1 [Compound 44] | ≥ 500
COc1ccccc1C(=O)NCC1(c2cccs2)CCOCC1 [Compound 43] | ≥ 500
COc1ccc(F)cc1C(=O)NCC1(c2ccccc2)CCOCC1 [Compound 37] | ≥ 200

target: KV1.3 (Homo sapiens, UniProt P22001); experiment: KV1.3 inhibition, manual whole-cell patch-clamp on Ltk^− cells; assay type: cell-based; parameters: expressed in transfected cells; host or cells: Ltk- cells (mouse fibroblasts), transient transfection with lipofectamine 2000; conditions: not given
Sequence (P22001 whole entry): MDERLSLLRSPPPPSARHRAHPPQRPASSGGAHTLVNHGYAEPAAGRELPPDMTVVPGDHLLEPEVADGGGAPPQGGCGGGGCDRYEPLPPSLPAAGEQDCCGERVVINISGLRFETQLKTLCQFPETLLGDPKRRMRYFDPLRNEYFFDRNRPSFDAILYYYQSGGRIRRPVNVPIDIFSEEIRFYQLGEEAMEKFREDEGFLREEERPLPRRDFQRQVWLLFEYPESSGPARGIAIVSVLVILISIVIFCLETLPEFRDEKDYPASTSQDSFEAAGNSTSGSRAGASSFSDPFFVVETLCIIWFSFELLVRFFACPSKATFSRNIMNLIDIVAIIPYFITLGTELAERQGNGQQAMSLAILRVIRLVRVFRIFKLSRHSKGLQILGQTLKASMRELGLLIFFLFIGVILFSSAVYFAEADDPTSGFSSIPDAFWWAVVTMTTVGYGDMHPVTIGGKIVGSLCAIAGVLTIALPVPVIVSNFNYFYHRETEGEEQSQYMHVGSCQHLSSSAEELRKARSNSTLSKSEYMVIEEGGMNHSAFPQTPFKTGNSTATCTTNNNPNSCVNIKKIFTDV

Compound | IC50 [nM]
COc1ccccc1C(=O)NCC1(c2ccsc2)CCOCC1 [Compound 44] | 950 ± 240
COc1ccccc1C(=O)NCC1(c2cccs2)CCOC1 (centres unmarked) [Compound 14] | 1330 ± 200
COc1ccccc1C(=O)NCC1(c2cccs2)CCOCC1 [Compound 43] | 1020 ± 70
COc1ccc(F)cc1C(=O)NCC1(c2ccccc2)CCOCC1 [Compound 37] | 1350 ± 40

system: Panc-1 tumor spheroids; experiment: Apoptosis (caspase 3/7 activity) in Panc-1 tumor spheroids; assay type: cell-based; conditions: with 8.9 µM cycloheximide
Description: (§5) Cell lines Panc-1 (ACC 783) and Colo-357 (CVCL_0221) were obtained through the validated collection of the pHioniC consortium (MSC-ITN 813834). Both cell lines were grown in RPMI1640, supplemented with 1 mM sodium pyruvate and 1% Glutamax (all Gibco Thermo-Fisher, Waltham, MA USA) 10%FBS (BioChrom, Berlin, Germany), at 5% CO2 and 37 °C in a humidified atmosphere.
Spheroids were cultured in round bottom ultra-low attachment 96-well plates (Corning). The optimal seeding densities were empirically determined (8000 cells/well for Colo-357 or 10,000 cells/well for Panc-1 spheroids. The cells were suspended in 2% Matrigel (Corning), centrifuged at 1000× g for 10 min and the spheroids were allowed to form in the incubator. Once the spheroids were formed, the treatments indicated together with 8.9 µM cycloheximide (as apoptosis sensitizer) were added and apoptosis was determined by live imaging in the Incucyte system in real time for approximately 60 h using Caspase-3/7 green reagent (Sartorius) as a reporter of apoptosis, which crosses the cell membrane and is cleaved by the activated Caspase-3/7, resulting in the fluorescent staining of nuclear DNA. Apoptosis on Panc-1 tumor spheroids is presented as integrated green fluorescence in the whole spheroid.

Compound | Induction of apoptosis in Panc-1 spheroids
COc1ccccc1C(=O)NCC1(c2ccsc2)CCOCC1 [Compound 44] | did not induce detectable levels of apoptosis
COc1ccccc1C(=O)NCC1(c2cccs2)CCOC1 (centres unmarked) [Compound 14] | did not induce detectable levels of apoptosis
COc1ccccc1C(=O)NCC1(c2cccs2)CCOCC1 [Compound 43] | did not induce detectable levels of apoptosis
COc1ccc(F)cc1C(=O)NCC1(c2ccccc2)CCOCC1 [Compound 37] | did not induce detectable levels of apoptosis

system: Colo-357 cells; experiment: Cell proliferation (culture confluency, IncuCyte) in 2D culture, Colo-357; assay type: cell-based; conditions: 100 µM, confluence by live cell imaging
Description: as §5
For cell proliferation assays, cells were seeded at a density of 10,000 cells/well in 96-well flat bottom culture plates (Corning, Kaiseslautern, Germany) and proliferation was measured through culture confluency using an IncuCyte device (Sartorius, Göttingen, Germany). Every hour, two phase contrast images per well were acquired, and a confluency mask was generated by training the analysis algorithm using representative images. Every image was then analyzed using the obtained parameters to determine culture confluency. Treatments were then added when cells reached a confluency of ~30% (Panc-1) or ~55% (Colo-357), and proliferation was determined for the following 60 h. Proliferation is reported as confluency increase with respect to the start of the treatment.

Compound | Growth of Colo-357 cells
COc1ccccc1C(=O)NCC1(c2ccsc2)CCOCC1 [Compound 44] | not significantly affected; also recorded: unaffected
COc1ccccc1C(=O)NCC1(c2cccs2)CCOC1 (centres unmarked) [Compound 14] | not significantly affected; also recorded: unaffected
COc1ccccc1C(=O)NCC1(c2cccs2)CCOCC1 [Compound 43] | not significantly affected; also recorded: unaffected
COc1ccc(F)cc1C(=O)NCC1(c2ccccc2)CCOCC1 [Compound 37] | not significantly affected; also recorded: unaffected
